According to ChEMBL document CHEMBL5500393, “Discovery and Optimization of Novel SaFabI Inhibitors as Specific Therapeutic Agents for MRSA Infection” (J Med Chem, 2024):
In brackets after ≈: the same amount, converted by molar mass.

Assays:
Staphylococcus aureus [1] = assay: Antimicrobial activity against […] Staphylococcus aureus NRS271 measured after 24 hrs by CLSI protocol based microdilution method; assay type: functional
Candida albicans = assay: Antimicrobial activity against Candida albicans SC5314 measured after 48 hrs by CLSI protocol based microdilution method; assay type: functional
Enterococcus faecium = assay: Antimicrobial activity against Enterococcus faecium ATCC19434 measured after 24 hrs by CLSI protocol based microdilution method; assay type: functional
Staphylococcus aureus [2] = assay: Antimicrobial activity against methicillin-susceptible Staphylococcus aureus ATCC25923 measured after 24 hrs by CLSI protocol based microdilution method; assay type: functional
Acinetobacter baumannii = assay: Antimicrobial activity against Acinetobacter baumannii ATCC19606 measured after 24 hrs by CLSI protocol based microdilution method; assay type: functional
Escherichia coli = assay: Antimicrobial activity against Escherichia coli ATCC25922 measured after 24 hrs by CLSI protocol based microdilution method; assay type: functional
Pseudomonas aeruginosa = assay: Antimicrobial activity against Pseudomonas aeruginosa PAO1 measured after 24 hrs by CLSI protocol based microdilution method; assay type: functional
Enterococcus faecalis = assay: Antimicrobial activity against Enterococcus faecalis ATCC29212 measured after 24 hrs by CLSI protocol based microdilution method; assay type: functional
Staphylococcus aureus [3] = assay: Antimicrobial activity against […] Staphylococcus aureus ATCC33591 measured after 24 hrs by CLSI protocol based microdilution method; assay type: functional
Staphylococcus aureus [4] = assay: Antimicrobial activity against methicillin-susceptible Staphylococcus aureus ATCC29213 measured after 24 hrs by CLSI protocol based microdilution method; assay type: functional
[5] = target: T1, Enoyl-[acyl-carrier-protein] reductase [NADPH] FabI (Staphylococcus aureus) (UniProt Q6GI75); assay: Inhibition of N-terminal his 6 tagged Staphylococcus aureus Fabi (1 to […] residues) expressed in Escherichia coli BL21 at 10 uM incubated for 30 mins in presence of NADPH by fluorescence based microplate reader analysis relative to control
T1 sequence (whole entry): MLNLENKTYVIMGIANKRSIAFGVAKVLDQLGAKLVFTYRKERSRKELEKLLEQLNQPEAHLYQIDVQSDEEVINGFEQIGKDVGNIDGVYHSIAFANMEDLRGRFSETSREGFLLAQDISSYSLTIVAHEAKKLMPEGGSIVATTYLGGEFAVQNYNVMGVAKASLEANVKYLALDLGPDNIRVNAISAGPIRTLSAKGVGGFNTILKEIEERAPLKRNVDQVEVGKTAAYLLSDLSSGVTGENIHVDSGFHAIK

Staphylococcus aureus [6] = assay: Antimicrobial activity against […] Staphylococcus aureus USA300 measured after 24 hrs by CLSI protocol based microdilution method; assay type: functional
[7] = target: T2, Enoyl-[acyl-carrier-protein] reductase [NADPH] FabI (Staphylococcus aureus, UniProt Q6GI75); assay: Inhibition of N-terminal his 6 tagged Staphylococcus aureus Fabi (1 to […] residues) expressed in Escherichia coli BL21 incubated for 30 mins in presence of NADPH by fluorescence based microplate reader analysis
T2 sequence (Q6GI75 whole entry): T1 sequence (whole entry)

Staphylococcus aureus [8] = assay: Antimicrobial activity against […] Staphylococcus aureus ATCC43300 measured after 24 hrs by CLSI protocol based microdilution method; assay type: functional
[9] = target: T1, Enoyl-[acyl-carrier-protein] reductase [NADPH] FabI (Staphylococcus aureus); assay: Inhibition of N-terminal his 6 tagged Staphylococcus aureus Fabi (1 to […] residues) expressed in Escherichia coli BL21 at 1 uM incubated for 30 mins in presence of NADPH by fluorescence based microplate reader analysis relative to control

SMILES | MIC (Staphylococcus aureus [1]) | MIC (Candida albicans) | MIC (Enterococcus faecium) | MIC (Staphylococcus aureus [2]) | MIC (Acinetobacter baumannii) | MIC (Escherichia coli) | MIC (Pseudomonas aeruginosa) | MIC (Enterococcus faecalis) | MIC (Staphylococcus aureus [3]) | MIC (Staphylococcus aureus [4]) | inhibition [5] | MIC (Staphylococcus aureus [6]) | IC50 [7] | MIC (Staphylococcus aureus [8]) | inhibition [9]
Cn1c(C2CC(=O)N(c3cccc(Cl)c3)C2)nc2ccccc21 (stereo not given) | 32 µg/mL (≈ 98.2 µM) | > 32 µg/mL | > 32 µg/mL | > 32 µg/mL | > 32 µg/mL | > 32 µg/mL | > 32 µg/mL | > 32 µg/mL | 32 µg/mL (≈ 98.2 µM) | 32 µg/mL (≈ 98.2 µM) | 69.6% | 32 µg/mL (≈ 98.2 µM) | 3530 nM | > 32 µg/mL | 12.8%
CCCn1c(C2CC(=O)N(c3cccc(Br)c3C)C2)nc2ccccc21 (stereo not given) | 8 µg/mL (≈ 19.4 µM) | > 32 µg/mL | > 32 µg/mL | 4 µg/mL (≈ 9.7 µM) | > 32 µg/mL | > 32 µg/mL | > 32 µg/mL | > 32 µg/mL | 8 µg/mL (≈ 19.4 µM) | 4 µg/mL (≈ 9.7 µM) | 99.5% | 8 µg/mL (≈ 19.4 µM) | 745 nM | 4 µg/mL (≈ 9.7 µM) | 57.6%
Cn1c(C2CC(=O)N(c3cccc(F)c3Br)C2)nc2ccccc21 (stereo not given) | > 32 µg/mL | > 32 µg/mL | > 32 µg/mL | > 32 µg/mL | > 32 µg/mL | > 32 µg/mL | > 32 µg/mL | > 32 µg/mL | 16 µg/mL (≈ 41.2 µM) | 32 µg/mL (≈ 82.4 µM) | 83% | 32 µg/mL (≈ 82.4 µM) | 2730 nM | > 32 µg/mL | 23.5%
Cc1ccccc1N1CC(c2nc3ccccc3n2C)CC1=O (stereo not given) | 16 µg/mL (≈ 52.4 µM) | > 32 µg/mL | > 32 µg/mL | 32 µg/mL (≈ 105 µM) | > 32 µg/mL | > 32 µg/mL | > 32 µg/mL | > 32 µg/mL | 16 µg/mL (≈ 52.4 µM) | 16 µg/mL (≈ 52.4 µM) | 85.2% | 32 µg/mL (≈ 105 µM) | 2410 nM | 32 µg/mL (≈ 105 µM) | 18.3%
Cc1cccc(N2CC(c3nc4ccccc4n3C)CC2=O)c1Cl (stereo not given) | 8 µg/mL (≈ 23.5 µM) | > 32 µg/mL | > 32 µg/mL | 16 µg/mL (≈ 47.1 µM) | > 32 µg/mL | > 32 µg/mL | > 32 µg/mL | > 32 µg/mL | 8 µg/mL (≈ 23.5 µM) | 8 µg/mL (≈ 23.5 µM) | 95.2% | 16 µg/mL (≈ 47.1 µM) | 1180 nM | 8 µg/mL (≈ 23.5 µM) | 47.3%
COc1ccc(N2CC(c3nc4ccccc4n3C)CC2=O)cc1Br (stereo not given) | > 32 µg/mL | > 32 µg/mL | > 32 µg/mL | > 32 µg/mL | > 32 µg/mL | > 32 µg/mL | > 32 µg/mL | > 32 µg/mL | > 32 µg/mL | > 32 µg/mL | 72.3% | > 32 µg/mL | 3020 nM | > 32 µg/mL | 9.4%
Cn1ccc2c(N3CC(c4nc5ccccc5n4C)CC3=O)cccc21 (stereo not given) | > 32 µg/mL | > 32 µg/mL | > 32 µg/mL | > 32 µg/mL | > 32 µg/mL | > 32 µg/mL | > 32 µg/mL | > 32 µg/mL | > 32 µg/mL | > 32 µg/mL | 62.1% | > 32 µg/mL | 8330 nM | > 32 µg/mL | 9.8%
Cc1c(O)cccc1N1CC(c2nc3ccccc3n2C)CC1=O (stereo not given) | 8 µg/mL (≈ 24.9 µM) | > 32 µg/mL | > 32 µg/mL | 8 µg/mL (≈ 24.9 µM) | > 32 µg/mL | > 32 µg/mL | > 32 µg/mL | > 32 µg/mL | 4 µg/mL (≈ 12.4 µM) | 8 µg/mL (≈ 24.9 µM) | 96.9% | 8 µg/mL (≈ 24.9 µM) | 650 nM | 8 µg/mL (≈ 24.9 µM) | 61.7%
Cn1c(C2CC(=O)N(c3cccc4ccccc34)C2)nc2ccccc21 (stereo not given) | 16 µg/mL (≈ 46.9 µM) | > 32 µg/mL | > 32 µg/mL | 8 µg/mL (≈ 23.4 µM) | > 32 µg/mL | > 32 µg/mL | > 32 µg/mL | > 32 µg/mL | 8 µg/mL (≈ 23.4 µM) | 8 µg/mL (≈ 23.4 µM) | 96.9% | 8 µg/mL (≈ 23.4 µM) | 1080 nM | 16 µg/mL (≈ 46.9 µM) | 48.4%
Cc1c(N2CC(c3nc4ccccc4n3C)CC2=O)cccc1[N+](=O)[O-] (stereo not given) | 32 µg/mL (≈ 91.3 µM) | > 32 µg/mL | > 32 µg/mL | 16 µg/mL (≈ 45.7 µM) | > 32 µg/mL | > 32 µg/mL | > 32 µg/mL | > 32 µg/mL | 16 µg/mL (≈ 45.7 µM) | 8 µg/mL (≈ 22.8 µM) | 98% | 16 µg/mL (≈ 45.7 µM) | 1520 nM | 16 µg/mL (≈ 45.7 µM) | 42.8%
Cc1c(Br)cccc1N1CC(c2nc3ccccc3n2C(C)C)CC1=O (stereo not given) | 32 µg/mL (≈ 77.6 µM) | > 32 µg/mL | > 32 µg/mL | 16 µg/mL (≈ 38.8 µM) | > 32 µg/mL | > 32 µg/mL | > 32 µg/mL | > 32 µg/mL | 16 µg/mL (≈ 38.8 µM) | 8 µg/mL (≈ 19.4 µM) | 87% | 16 µg/mL (≈ 38.8 µM) | 1730 nM | 16 µg/mL (≈ 38.8 µM) | 21.1%
